Values quoted from earlier work as cited in article PMC9916978, “Enantioselective Human Serum Albumin Binding of Apremilast: Liquid Chromatographic, Fluorescence and Molecular Docking Study” (International Journal of Molecular Sciences, 2023).

Key:
Parameters in all cases: method as in earlier work
Details in all cases: 0.25 to 2.5 μg/mL; cited from earlier work
mouse plasma = system: mouse plasma
rat plasma = system: rat plasma
rabbit plasma = system: rabbit plasma
monkey plasma = system: monkey plasma
human plasma = system: human plasma

CCOc1cc([C@@H](CS(C)(=O)=O)N2C(=O)c3cccc(NC(C)=O)c3C2=O)ccc1OC [APR, apremilast]
overall mean percent bound (mouse plasma): 88.6%
overall mean percent bound (rat plasma): 90.6%
overall mean percent bound (rabbit plasma): 80.9%
overall mean percent bound (monkey plasma): 84.3%
overall mean percent bound (human plasma): 68.3%
